Measured values as given in PubChem BioAssay (NCI).
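Cells were grown in 96-well plates and exposed to each compound for 48 hours at five concentrations; endpoints were interpolated linearly between bracketing concentrations, or set to the highest concentration if not reached. The concentration for full growth arrest is given as TGI.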

Columns and labels:
Assay in all cases: inhibition of tumour cell growth, NCI panel, 48 h
SK-MEL-28 melanoma = tested on: SK-MEL-28 melanoma
SK-MEL-5 melanoma = tested on: SK-MEL-5 melanoma
HCT-116 colon = tested on: HCT-116 colon
TK-10 renal = tested on: TK-10 renal
HOP-18 NSCLC = tested on: HOP-18 NSCLC
SNB-75 CNS = tested on: SNB-75 CNS
NCI-H460 lung = tested on: NCI-H460 lung
DLD-1 colon = tested on: DLD-1 colon
UACC-257 melanoma = tested on: UACC-257 melanoma
DMS 273 small cell lung = tested on: DMS 273 small cell lung
UACC-62 melanoma = tested on: UACC-62 melanoma
SN12C renal = tested on: SN12C renal
LXFL 529 NSCLC = tested on: LXFL 529 NSCLC
SF-268 CNS = tested on: SF-268 CNS
SF-539 CNS = tested on: SF-539 CNS
MALME-3M melanoma = tested on: MALME-3M melanoma
EKVX NSCLC = tested on: EKVX NSCLC
OVCAR-4 ovarian = tested on: OVCAR-4 ovarian
NCI-H522 lung = tested on: NCI-H522 lung
KM20L2 colon = tested on: KM20L2 colon
KM12 colon = tested on: KM12 colon
A549 NSCLC = tested on: A549 NSCLC
M19-MEL melanoma = tested on: M19-MEL melanoma
NCI-H23 lung = tested on: NCI-H23 lung
UO-31 renal = tested on: UO-31 renal
IGROV1 ovarian = tested on: IGROV1 ovarian
ACHN renal = tested on: ACHN renal
DMS 114 small cell lung = tested on: DMS 114 small cell lung
SK-MEL-2 melanoma = tested on: SK-MEL-2 melanoma
OVCAR-5 ovarian = tested on: OVCAR-5 ovarian
LOX IMVI melanoma = tested on: LOX IMVI melanoma
HCC-2998 colon = tested on: HCC-2998 colon
OVCAR-3 ovarian = tested on: OVCAR-3 ovarian
RPMI-8226 leukemia = tested on: RPMI-8226 leukemia
A498 renal = tested on: A498 renal
HOP-62 NSCLC = tested on: HOP-62 NSCLC
SF-295 CNS = tested on: SF-295 CNS
HT29 colon = tested on: HT29 colon
COLO 205 colon = tested on: COLO 205 colon
K-562 leukemia = tested on: K-562 leukemia
OVCAR-8 ovarian = tested on: OVCAR-8 ovarian
NCI-H226 lung = tested on: NCI-H226 lung
SK-OV-3 ovarian = tested on: SK-OV-3 ovarian
RXF 393 renal = tested on: RXF 393 renal
U251 CNS = tested on: U251 CNS
786-0 renal = tested on: 786-0 renal
M14 melanoma = tested on: M14 melanoma
HL-60(TB) leukemia = tested on: HL-60(TB) leukemia
CAKI-1 renal = tested on: CAKI-1 renal
MOLT-4 leukemia = tested on: MOLT-4 leukemia
SR leukemia = tested on: SR leukemia
CCRF-CEM leukemia = tested on: CCRF-CEM leukemia
HCT-15 colon = tested on: HCT-15 colon
HOP-92 NSCLC = tested on: HOP-92 NSCLC
SNB-19 CNS = tested on: SNB-19 CNS
XF 498 CNS = tested on: XF 498 CNS
SNB-78 CNS = tested on: SNB-78 CNS
SW-620 colon = tested on: SW-620 colon

With `CCOP(=O)(CC(=O)C1=C(O)C(CCCCNC(=O)OC(C)(C)C)N(Cc2ccccc2)C1=O)OCC` (stereo not given) the TGI (SK-MEL-28 melanoma) was > 100 µM, the TGI (SK-MEL-5 melanoma) was > 100 µM and the TGI (HCT-116 colon) was > 100 µM. The TGI (TK-10 renal) was > 100 µM, the TGI (HOP-18 NSCLC) was > 100 µM and the TGI (SNB-75 CNS) was > 100 µM. The TGI (NCI-H460 lung) was > 100 µM, the TGI (DLD-1 colon) was > 100 µM and the TGI (UACC-257 melanoma) was > 100 µM. For the same compound, the TGI (DMS 273 small cell lung) was > 100 µM, the TGI (UACC-62 melanoma) was > 100 µM and the TGI (SN12C renal) was > 100 µM. The TGI (LXFL 529 NSCLC) was > 100 µM, the TGI (SF-268 CNS) was > 100 µM and the TGI (SF-539 CNS) was > 100 µM. The TGI (MALME-3M melanoma) was > 100 µM, the TGI (EKVX NSCLC) was > 100 µM and the TGI (OVCAR-4 ovarian) was > 100 µM. The TGI (NCI-H522 lung) was > 100 µM, the TGI (KM20L2 colon) was > 100 µM and the TGI (KM12 colon) was > 100 µM. The TGI (A549 NSCLC) was > 100 µM, the TGI (M19-MEL melanoma) was > 100 µM and the TGI (NCI-H23 lung) was > 100 µM. The TGI (UO-31 renal) was > 100 µM, the TGI (IGROV1 ovarian) was > 100 µM and the TGI (ACHN renal) was > 100 µM. For the same compound, the TGI (DMS 114 small cell lung) was > 100 µM, the TGI (SK-MEL-2 melanoma) was > 100 µM and the TGI (OVCAR-5 ovarian) was > 100 µM. For the same compound, the TGI (LOX IMVI melanoma) was > 100 µM, the TGI (HCC-2998 colon) was > 100 µM and the TGI (OVCAR-3 ovarian) was > 100 µM. For the same compound, the TGI (RPMI-8226 leukemia) was > 100 µM, the TGI (A498 renal) was > 100 µM and the TGI (HOP-62 NSCLC) was > 100 µM. The TGI (SF-295 CNS) was > 100 µM, the TGI (HT29 colon) was > 100 µM and the TGI (COLO 205 colon) was > 100 µM. For the same compound, the TGI (K-562 leukemia) was > 100 µM, the TGI (OVCAR-8 ovarian) was > 100 µM and the TGI (NCI-H226 lung) was > 100 µM. The TGI (SK-OV-3 ovarian) was > 100 µM, the TGI (RXF 393 renal) was > 100 µM and the TGI (U251 CNS) was > 100 µM. For the same compound, the TGI (786-0 renal) was > 100 µM, the TGI (M14 melanoma) was > 100 µM and the TGI (HL-60(TB) leukemia) was > 100 µM. The TGI (CAKI-1 renal) was > 100 µM, the TGI (MOLT-4 leukemia) was > 100 µM and the TGI (SR leukemia) was > 100 µM. The TGI (CCRF-CEM leukemia) was > 100 µM.

For `CC(C)(C)N=CN(C=C(c1ccccc1)c1ccccc1)C1CCCCC1`, the TGI (HCT-15 colon) was > 100 µM, the TGI (SK-MEL-28 melanoma) was > 100 µM and the TGI (SK-MEL-5 melanoma) was 31.8 µM. For the same compound, the TGI (HCT-116 colon) was > 100 µM, the TGI (TK-10 renal) was > 100 µM and the TGI (HOP-18 NSCLC) was > 100 µM. The TGI (SNB-75 CNS) was > 100 µM, the TGI (NCI-H460 lung) was > 100 µM and the TGI (DLD-1 colon) was > 100 µM. The TGI (UACC-257 melanoma) was > 100 µM, the TGI (DMS 273 small cell lung) was > 100 µM and the TGI (UACC-62 melanoma) was > 100 µM. The TGI (SN12C renal) was > 100 µM, the TGI (SF-268 CNS) was > 100 µM and the TGI (SF-539 CNS) was > 100 µM. The TGI (MALME-3M melanoma) was 35.8 µM, the TGI (EKVX NSCLC) was > 100 µM and the TGI (OVCAR-4 ovarian) was > 100 µM. For the same compound, the TGI (KM20L2 colon) was 46.7 µM, the TGI (KM12 colon) was > 100 µM and the TGI (HOP-92 NSCLC) was 82.4 µM. For the same compound, the TGI (A549 NSCLC) was > 100 µM, the TGI (M19-MEL melanoma) was > 100 µM and the TGI (NCI-H23 lung) was > 100 µM. The TGI (SNB-19 CNS) was > 100 µM, the TGI (IGROV1 ovarian) was > 100 µM and the TGI (ACHN renal) was > 100 µM. For the same compound, the TGI (DMS 114 small cell lung) was 55.3 µM, the TGI (SK-MEL-2 melanoma) was > 100 µM and the TGI (OVCAR-5 ovarian) was > 100 µM. The TGI (LOX IMVI melanoma) was 92.3 µM, the TGI (XF 498 CNS) was 56.8 µM and the TGI (OVCAR-3 ovarian) was > 100 µM. The TGI (SNB-78 CNS) was > 100 µM, the TGI (A498 renal) was 91.4 µM and the TGI (HOP-62 NSCLC) was > 100 µM. The TGI (SF-295 CNS) was 93.3 µM, the TGI (HT29 colon) was > 100 µM and the TGI (COLO 205 colon) was > 100 µM. For the same compound, the TGI (K-562 leukemia) was 39.9 µM, the TGI (SW-620 colon) was > 100 µM and the TGI (OVCAR-8 ovarian) was > 100 µM. The TGI (RXF 393 renal) was 79.2 µM, the TGI (U251 CNS) was > 100 µM and the TGI (786-0 renal) was > 100 µM. The TGI (CAKI-1 renal) was > 100 µM, the TGI (SR leukemia) was 51 µM and the TGI (CCRF-CEM leukemia) was > 100 µM.
